Reference: patent publication US20070190191A1, “Use of geraniol in antitumoral therapy” (priority 2003, published 2007)
Read-outs that look alike come from different tables or passages of the source.

What was measured:
[1] = test system: growing Caco-2 cells; assay: Cell growth (sulforhodamine B), exponentially growing Caco-2 cells; type: cell-based, human
Description: (§1) In all experiments, cells were seeded at 6×10^5 cells on culture dishes (100 mm in diameter), or at 4500 cells/well in 96-well plates. Caco-2 and SW620 cells were grown in DMEM supplemented with 3% horse serum, 5 μg/ml transferrin, 5 ng/ml selenium, and 10 μg/ml insulin (TSI defined medium; Invitrogen, SARL, Cergy-Pontoise, France). Geraniol (Sigma-Aldrich, Saint Louis, Mo.) was dissolved in absolute ethanol, and 5-FU (Teva Pharmachemie B.V., Mijdrecht, The Netherlands) was diluted in PBS at a final concentration of 50 mg/ml. The compounds were added to the culture medium 24 h or 7 days after cell seeding (final concentration of ethanol, 0.1%).
(§2) Cells were seeded in 96-well plates and incubated for different times. Cell growth was stopped by addition of 50 μl of trichloroacetic acid (50%, v/v), and the protein content of each well was determined by staining with sulforhodamine B (Skehan et al., 1990): Absorbance was determined at 490 nm.
(§3) The comparative effects of geraniol and 5-FU were studied on exponentially growing Caco-2 and SW620 cells. Cells were cultured as described in Example 1. […]
(§4) The effects of graded doses of 5-FU alone or in combination with geraniol were determined. […]

[2] = test system: Caco-2 cells; assay: Cytotoxicity by LDH release into the culture medium; type: cell-based, human; details: confluent Caco-2 (7 days after seeding), 4 days treatment, geraniol alone 400 μM
Description: To determine cytotoxicity, cells (4×10^5/well) were seeded on culture dishes (100 nm diameter) and incubated in DMEM culture medium supplemented with 3% FCS. On the 7th day after seeding, cells were incubated with 5-FU (5 μM) alone or together with geraniol (IC30: 400 μM) and 5-FU for 1, 2, 3, and 4 days. Then, cytotoxicity was assessed by determining the release of lactate dehydrogenase (LDH) (Skehan et al., 1990) into the culture medium using the Cyto Tox R nonradioactive cytotoxicity assay kit (Promega, Madison, Wis.).

[3] = test system: confluent Caco-2 cells; assay: Cell growth (sulforhodamine B), confluent Caco-2 cells; type: cell-based, human; details: for cell loss: confluent Caco-2, 8 days treatment, geraniol 400 μM (IC30), 5-FU 1 μM
Description: as §1
In all experimental conditions, culture medium, geraniol, and 5-FU were replaced every 24 h. Cells were harvested after various times, washed three times with phosphate-buffered saline (PBS) (pH 7.2), and kept at −70° C. until assays were performed.
as §2
The effects of increasing doses of 5-FU alone or in combination with geraniol were determined after treatment for 8 days. […] Geraniol and 5-FU were replaced every 24 h.
Statistical differences between control and geraniol-treated cells were evaluated using the Student's t test. Differences were considered to be significant for values of p<0.05.

[4] = test system: Caco-2 cells; assay: Electron microscopy of Caco-2 cell morphological differentiation; type: cell-based, human; details: confluent Caco-2 cells (7 days after seeding) treated 4 days; geraniol 400 μM, 5-FU 5 μM
Description: Caco-2 and SW620 cells were obtained from the European Collection of Animal Cell Culture (CERDIC, Sophia Antipolis, France) and were cultured in 75-cm^2 Falcon flasks containing Dulbecco's modified Eagle's medium (DMEM) and 25 mM glucose supplemented with 10% heat-inactivated horse serum, 100 U/ml penicillin, and 100 μg/ml streptomycin. Cells were incubated at 37° C. in a humidified atmosphere of 5% CO2 and subcultured after trypsinization (0.5% trypsin/2.6 mM EDTA). They were used for up to 30 to 40 passages.
as §1
In all experimental conditions, culture medium, geraniol, and 5-FU were replaced every 24 h. […]

[5] = test system: Caco-2 cells; assay: Caco-2 cell growth with CPT-11 and geraniol; type: cell-based; details: Homo sapiens, 192 h, Caco-2, 8 days treatment
Description: as §2
The effect of various doses of CPT-11 alone or in combination with geraniol was determined after 8 days of treatment of Caco-2 cells. Concentrations of CPT-11 of from 0.2 to 0.8 μM were tested and geraniol was used at a concentration which induces a 10% inhibition of the cell growth (IC10).

[6] = test system: Caco-2 cells; assay: Brush-border membrane hydrolase assays (functional differentiation); type: cell-based; details: Homo sapiens, 168 h, 400 μM geraniol, Caco-2 at confluency (7 days after seeding), brush-border membranes
Description: Brush-border membranes were isolated as described by Schmitz et al. (1973). Sucrase activity was determined according to Messer and […] (1966) and lactase activity according to Koldovsky et al. (1969). Alkaline phosphatase activity was assayed by the method of Garen and […] (1960), and N-aminopeptidase activity was determined according to Maroux et al. (1973).

[7] = test system: human colonic tumors TC-118; assay: Growth of 5-FU-resistant human colonic tumors transplanted in nude mice; type: in vivo, Swiss nu/nu mice; details: day 14
Description: The effect of geraniol and 5-FU were evaluated in vivo on the growth of 5-FU-resistant human colonic tumors ([…]) transplanted in Swiss nu/nu mice. TC 118 is the hepatic metastasis of a primary human colorectal tumor is used as xénogreffe. Fresh fragments of the tumor are implanted in the subcutaneous tissue of female Swiss nulnu mice of from 5 to 6 weeks. The appearance of the tumor is watched by a bi-weekly exam of mice and the time of appearance is registered. Tumors are detected by palpation as soon as they measure approximately 3×3 mm (that is approximately 15 mm^3). […] Tumors are measured with a calliper rule, 3 times a week, until the sacrifice of the animal. Two perpendicular diameters are measured and the volumes of tumors are calculated according to the following equation: V=A×B^2/2 where A represents the large diameter and B the small diameter. The relative tumoral volume (VTR) is calculated according to the formula: VTR=Volume at day D/Initial volume […] When these molecules were given in combination, they were injected simultaneously. A control group was treated with excipient (NaCl 0.9%). The mean value of the VTR was calculated for every group on every day corresponding to the measure of tumors. The curves of tumoral growth were obtained in every experimental group or for every individual tumor by reporting the values of the VTR as a function of time (expressed in days after the beginning of the treatment). The measures were individually recorded, allowing a follow-up of the tumoral growth. […] Mice not presenting tumors were sacrificed at the same time. The percentage of inhibition of the tumoral growth was calculated at day 14 for the various treatments, according to the formula: (VTR of treated mice/VTR of control mice)×100. Results

[8] = test system: SW620 cells; assay: Cell growth (sulforhodamine B), growing SW620 cells; type: cell-based; details: Homo sapiens, SW-620, 192 h, 8 days treatment, in the combination geraniol at IC30, read-out: IC50 5-FU, SW620
Description: as §1, §2, §3, §4

[9] = test system: Caco-2 cells; assay: Apoptosis: DNA fragmentation ladder and annexin V-FITC labeling; type: cell-based, human; details: exponentially growing and confluent Caco-2 cells, 24 h; 5-FU 5 μM, geraniol IC30 400 μM
Description: After trypsinization, cells were collected by centrifugation and stored at −80° C. Apoptotic DNA was separated from genomic DNA, using the Suicide Track DNA ladder kit (Oncogene Research Products, Cambridge, Mass.). DNA fragments were separated by electrophoresis and stained with ethidium bromide. Apoptosis was further tested by evaluating phosphatidylserine membrane externalization by measuring annexin V-conjugated fluorescein isothiocyanate (FITC) binding using an Annexin V-FITC kit (Medsystems Diagnostics GmbH, Vienna, Austria). Briefly, cells were washed in cold PBS without calcium and, for each sample, 5×10^5 cells were resuspended in 100 μl of reaction buffer (10 μl of binding buffer 10-fold concentrated, 10 μl of propidium iodide, 1 μl of annexin V-FITC, and 79 μl of deionized water. After incubation for 15 min in the dark at room temperature, each sample was diluted with binding buffer to obtain an appropriate final volume for flow cytometry.

Row | IC50 ([5]; in the combination CPT-11 at IC10, read-out: IC50 Geraniol) [µM] | IC50 ([3]; Homo sapiens, Caco-2, 192 h, 8 days treatment, in the combination geraniol at its IC30 (400 μM), read-out: IC50 5-FU, Caco-2 Confluent) [µM] | IC50 [8] [µM] | IC50 ([5]; in the combination geraniol at IC10, read-out: IC50 CPT-11) [µM] | Structure (SMILES) | IC30 of geraniol ([1]; growing Caco-2 cells) [µM] | cytotoxic effect (LDH release) [2] | IC30 of geraniol ([3]; Caco-2 cells at confluency) [µM] | cell loss [3] [%] | brush-border microvilli (transmission electron microscopy) [4] | inhibition at 400 µM ([6]; read-out: inhibition of the increase in alkaline phosphatase activity) [%] | inhibition at 400 µM ([6]; read-out: inhibition of the increase in aminopeptidase activity) [%] | inhibition at 400 µM ([6]; read-out: inhibition of the increase of lactase activity) [%] | inhibition at 400 µM ([6]; read-out: inhibition of the increase of sucrase activity) [%] | inhibition of the tumoral growth ([7]; geraniol alone 150 mg/kg/day i.p. for 5 days) [%] | IC50 ([1]; Homo sapiens, Caco-2, 8 days treatment from 24 h after seeding, in the combination geraniol at its IC30 (200 μM), read-out: IC50 5-FU, Caco-2 Growing) [µM] | annexin V labeling (flow cytometry) [9] | apoptotic DNA fragmentation ladders [9] | inhibition of the tumoral growth ([7]; 5-FU alone 20 mg/kg/day i.p. for 5 days) | inhibition of the tumoral growth ([7]; 5-FU alone 40 mg/kg/day i.p. for 5 days) [%]
1 | 200 ± 0.03 |  |  |  | CC(C)=CCC/C(C)=C/CO [geraniol] | 200 | no cytotoxic effect | 400 | 30 | microvilli were scarce, and they were shorter | ~50 | ~50 | ~70 | ~90 | 26 |  |  |  |  | 
2 |  | 25 | 2 |  | O=c1[nH]cc(F)c(=O)[nH]1 [5-FU, 5-fluorouracil] |  |  |  | 25 | did not modify brush-border membranes |  |  |  |  |  | 0.4 | absence of annexin V labeling | did not exhibit apoptotic DNA fragmentation ladders | no effect | 30
3 |  |  |  | 0.7 | CCc1c2c(nc3ccc(OC(=O)N4CCC(N5CCCCC5)CC4)cc13)-c1cc3c(c(=O)n1C2)COC(=O)[C@]3(O)CC [CPT-11, irinotecan, reference compound] |  |  |  |  |  |  |  |  |  |  |  |  |  |  | 
